{"source": "patent US20230002446A1", "about": "“ANTI-INFLAMMATORY AGENTS” (The University of Sydney, priority 2019, published 2023)", "key": {"C57BL/6 mice [1]": {"tested_on": "C57BL/6 mice", "test": "imiquimod-induced psoriasis model", "assay_type": "in vivo", "method": "FIG. 4—Peptide administration reduces local disease severity in a mouse model of psoriasis. (A) Experimental outline (B) Clinical scores of mice receiving PBS or peptide RP23 (SEQ ID NO:12) injection, compared to daily (0-4 days) topical application of glucocorticoid on the back and ear. (C) Measures of disease local to the peptide RP23 injection site. Redness was measured using an unbiased erythema meter and skin thickness by manual callipers. (D) Spleen weight at day 5 as a measure of systemic immune suppression. […] Data are presented as mean±S.E.M. Statistical significance was determined by ANOVA with Dunnett's multiple comparison test, *p<0.05, **p<0.01, ***p<0.001, ****p<0.0001.\nFIG. 10. Therapeutic synergy of RP23 and topical steroid in the murine imiquimod-induced psoriasis model. Aldara cream (5% imiquimod, 57.5 mgs) was applied daily (days 0-4) to the backs of C57BL/6 female mice to induce psoriasis. Clinical scores (PASI), modified psoriasis area and severity index) of mice receiving (A) PBS or RP23 injection at day −1, with or without topical application of glucocorticoid (0.05% betamethasone dipropionate, “BD” 30 mgs) on the back at day 0 (B) PBS or RP23 injection at day 1 and topical application of glucocorticoid at day 1, in comparison to PBS injection only at day −1. Data are the means+/−SEM (n=5). Statistical significance was determined by ANOVA with Dunnett's multiple comparison test to PBS only control, *p<0.05, **p<0.01, ***p<0.001, ****p<0.0001.\nThe backs of 8-week old female C57BL/6 mice (Australian BioResources) were coarse shaved. A minimum of 24 hours later, 10 nmol RP23 was delivered via sub-cutaneous injection at the lower back in 200 μl phosphate buffered saline (PBS). Groups of mice acting as positive controls for disease development received injection of PBS only. One or seven days later, psoriasis-like inflammation was induced via topical application of 5% imiquimod cream (Aldara, Inova Pharmaceuticals) to the shaved back (57.5 mgs) and one ear (5 mg, divided between dorsal and ventral sides). The contralateral ear served as a negative control for imiquimod-induced inflammation. Imiquimod application was repeated daily for four consecutive days. C57BL/6 mice experience rapid weight loss (up to 20%) upon application of imiquimod cream. Supportive care was provided in the form of dietary supplementation commenced 2 days prior to imiquimod application, and intra-peritoneal injection of 300 μl sterile PBS on days two and three of imiquimod application. Disease progression was monitored for five days, by recording weight loss and grading disease of the back skin using a modified Psoriasis Area and Severity Index (PASI) clinical scoring system, that assessed only disease severity. Additionally, erythema meter (DSM II ColorMeter, Cortex Technology, Denmark) readings were taken at four quadrants on the back skin and skin backfold thickness measurements were recorded using manual callipers. Disease progression of the ear skin was determined by recording ear thickness, measured by manual callipers. As a positive control for immune suppressive therapy, groups of mice received daily topical application of betamethasone dipropionate 0.05% (MSD) cream (30 mgs on the back, 10 mgs on the ear).\nAldara cream (5% imiquimod, 57.5 mgs) was applied daily (days 0-4) to the backs of C57BL/6 female mice to induce psoriasis. Clinical scores (PASI, modified psoriasis area and severity index) of mice receiving prophylactic PBS or RP23 (at day −1), with or without topical application of glucocorticoid (0.05% betamethasone dipropionate, 30 mgs) to the back at day 0, were determined (FIG. 10A).\nRP23 and BD therapy were also tested when given synergistically at a therapeutic timepoint (at day 1). Psoriasis was induced as above, but clinical scores were determined daily for 10 days after ceasing imiquimod application at day 5, to record the rate and degree of psoriasis disease resolution (FIG. 10B)."}, "C57BL/6 mice [2]": {"tested_on": "C57BL/6 mice", "test": "contact hypersensitivity model (DNFB-induced contact dermatitis)", "assay_type": "in vivo", "details": "for specific increase in ear thickness: equivalent molar amount of 10 nmol RP23, subcutaneously at the abdomen (FIG. 9); for inflammatory response (ear thickness over 72 hours): 10 nmol subcutaneously at the abdomen, compared to PBS (FIG. 8)", "method": "FIG. 2—Peptide administration reduces inflammation in a mouse model of contact dermatitis and reduces myeloid inflammatory infiltrate. (A) Experimental outline of DNFB-induced contact dermatitis. (B) Ear thickness of peptide RP23 (SEQ ID NO:12) treated mice, repeated 3 times. […] Data are presented as mean±S.E.M. Statistical significance was determined (B) by multiple t tests (C) by ANOVA with Dunnett's multiple comparison test, *p<0.05, **p<0.01, ***p<0.001.\nFIG. 3—The peptide effect is dependent on the peptide sequence and dose. (A) PBS, scrambled peptide or peptide MUC1SP ([…]; SEQ ID NO: 3) was injected subcutaneously seven days prior to sensitising C57BL/6 mice (n=5) with DNFB on the abdomen. […] (B) A comparison of the immunosuppressive effect of peptide RP23 (SEQ ID NO:12) and MUC1SP (SEQ ID NO: 3). (C) SEQ ID NO:12 suppressed immunity in a dose dependent manner. (D) Addition of GM-CSF to the SEQ ID NO:12 injection abrogated the immune suppression. Data are the means±S.E.M.\nFIG. 8—Effects of peptide variants on the inflammatory response. Mice received one injection of PBS or one of the following peptides (10 nmol) subcutaneously at the abdomen (A) peptide RP23 (SEQ ID NO: 12), peptide AF594-RP23 (SEQ ID NO: 21), peptide K4-G3-MUC1SP (SEQ ID NO:22) or MUC1SP C fragment (SEQ ID NO: 2). Five days later, mice were challenged with DNFB at a distal site, on the ears. The thickness of the ears was measured over 72 hours.\nFIG. 9—Effects of further peptide variants, without N-terminal methionine, on the inflammatory response in a model of contact dermatitis. Mice received one injection of PBS, RP23 (SEQ ID NO:12) (10 nmol) or one of the peptide variants indicated in the table including SEQ ID NO: 32 and 35 as described herein (equivalent molar amount of RP23), subcutaneously at the abdomen. Photoleucine replaces leucine where indicated, these molecules used for photo-crosslinking studies. Seven days later, abdominal skin was sensitised with a contact irritant (DNFB) and five days later, mice were challenged with DNFB at a distal site, on the ears. (A) Specific increase in ear thickness over 72 hours, data are the means+/−SEM (n=6). Statistical significance was determined by ANOVA with Dunnett's multiple comparison test to PBS only control, **p<0.01. (B) Specific increase in ear thickness at 24 hours post-challenge. Data are the means+/−SEM (n=6). Statistical significance was determined by t-test to relevant control, as indicated, *p<0.05, **p<0.01, ns=not significant.\nThe abdomens of 8-week old female C57BL/6 mice (Australian BioResources) were coarse shaved. A minimum of 24 hours later, RP23 (SEQ ID NO:12) was delivered via sub-cutaneous injection at the abdomen in 50 μl phosphate buffered saline. Seven days later, mice were topically sensitised to 1-fluoro-2,4-dinitrobenzene (DNFB, 0.5 vol %) in olive oil/acetone (1:4, v/v, 30 μl) via application to the shaved abdomen. Five days after sensitisation, mice were challenged on the ears with topical DNFB (0.25 vol %) in olive oil/acetone (1:4, v/v, 15 μl per ear). Ear thickness was measured daily using manual callipers from immediately before challenge, up to 96 hours post challenge. Positive controls for ear swelling consisted of mice that were injected with PBS instead of RP23. Negative or irritant controls consisted of a group of mice that received the DNFB challenge, but not the sensitisation. The average of the change in ear thickness from this control group was subtracted from the change in ear thickness of other samples to account for non-specific irritation due to the application of DNFB, olive oil and acetone.\nThe inventors then conducted additional in vivo studies, using a model of contact hypersensitivity, to determine the portion of RP23 responsible for its immunomodulatory activity. Mice received one injection of peptide (10 nmol) subcutaneously at the abdomen, seven days prior to sensitisation of the skin with a contact irritant (DNFB). […]"}, "C57BL/6 mice [3]": {"tested_on": "C57BL/6 mice", "details": "mouse, in vivo", "description": "AF594-RP23^+ cells were identified by flow cytometry 24 hours after administration to C57BL/6 mice. (A) RP23 was injected subcutaneously at the lower back. […] (B) RP23 was delivered to the lungs by intranasal instillation. The percentage distribution of total RP23^+ leukocytes amongst immune cell subsets in the lungs is shown. Data are the means+/−SEM (n=4).\nAF594-RP23+ cells were identified by flow cytometry 24 hours after administration to C57BL/6 mice."}, "[4]": {"details": "daily topical 0.05% cream, 30 mgs back, 10 mgs ear"}}, "note": "Where no end group is shown, it is not given here. [ ]: non-standard residue; d: D form. Ala(3-Me-diazirin-3-yl) = CC1(C[C@H](N)C(=O)O)N=N1; PEG = not defined here"}
{"compound": "CCC(=O)OCC(=O)[C@@]1(OC(=O)CC)[C@@H](C)C[C@H]2[C@@H]3CCC4=CC(=O)C=C[C@]4(C)[C@@]3(F)[C@@H](O)C[C@@]21C", "note": "[betamethasone dipropionate, reference compound]", "values": [{"measurement": "spleen weight", "setting": "C57BL/6 mice [1]; [4]", "value": "substantial reductions in spleen weight"}, {"measurement": "weight loss", "setting": "C57BL/6 mice [1]; [4]", "value": "greater degree of weight loss"}, {"measurement": "clinical scores (PASI), protective effect as the disease progressed", "setting": "C57BL/6 mice [1]; prophylactic: injection day -1, BD day 0, later time points", "value": "protective effect from BD alone was lost"}, {"measurement": "systemic immune suppression / locality of effect", "setting": "C57BL/6 mice [1]; spleen weight at day 5, distal ear thickness (FIG. 4d)", "value": "caused unwanted systemic immune suppression"}]}
{"compound": "(Gd)DOTA-KKKK-PEG-TPGTQSPFFLLLLLTVLTVV (KKKK[PEG]TPGTQSPFF[Ala(3-Me-diazirin-3-yl)][Ala(3-Me-diazirin-3-yl)][Ala(3-Me-diazirin-3-yl)][Ala(3-Me-diazirin-3-yl)][Ala(3-Me-diazirin-3-yl)]TVLTVV; not fully specified (N-terminus); reading uncertain; also: Gd chelated by DOTA; listed as Homo sapiens) [SEQ ID NO: 32]", "values": [{"measurement": "specific increase in ear thickness", "setting": "C57BL/6 mice [2]", "value": "confirmed"}]}
{"compound": "AF594-KKKK-PEG-MTPGTQSPFFLLLLLTVLTVV (KKKKMTPGTQSPFFLLLLLTVLTVV; AF594-KKKK-PEG N-terminal; (1)..(1) Alexa Fluor 594 backbone modification; (4)..(5) polyethylene glycol (PEG) backbone modification between residues 4 and 5; listed as Homo sapiens) [SEQ ID NO: 21]", "values": [{"measurement": "cells capturing the peptide in the lung", "setting": "C57BL/6 mice [3]", "value": "primarily captured by neutrophils, alveolar macrophages and DC"}, {"measurement": "cells capturing the peptide in the skin", "setting": "C57BL/6 mice [3]", "value": "primarily captured in the skin by neutrophils (CD11 b+Ly6G+) or CD11 b+ myeloid cell subsets"}, {"measurement": "inflammatory response (ear thickness over 72 hours)", "setting": "C57BL/6 mice [2]", "value": "led to a reduced inflammatory response"}]}
{"compound": "Biotin-KKKK-PEG-TPGTQSPFFLLLLL*TVLTVV, wherein L* is photoleucine [SEQ ID NO: 35]", "values": [{"measurement": "specific increase in ear thickness", "setting": "C57BL/6 mice [2]", "value": "confirmed"}]}
{"compound": "Biotin-KKKK-peg-QLTLTFVPSTLGFL*TLPVLV (no N-term Met) [scrambled variant of SEQ ID NO. 35, reference compound]", "values": [{"measurement": "specific increase in ear thickness", "setting": "C57BL/6 mice [2]", "value": "did not have a reduction in ear inflammation"}]}
{"compound": "KKKKGGGMTPGTQSPFFLLLLLTVLTVV (listed as Homo sapiens) [SEQ ID NO: 22]", "values": [{"measurement": "inflammatory response (ear thickness over 72 hours)", "setting": "C57BL/6 mice [2]", "value": "led to a reduced inflammatory response"}]}
{"compound": "LLLLLTVLTVV (listed as Homo sapiens) [SEQ ID NO: 2]", "values": [{"measurement": "inflammatory response (ear thickness over 72 hours)", "setting": "C57BL/6 mice [2]", "value": "led to a reduced inflammatory response"}]}
{"compound": "MTPGTQSPFFLLLLLTVLTVV (listed as Homo sapiens) [SEQ ID NO: 3]", "values": [{"measurement": "ear swelling, sequence specificity", "setting": "C57BL/6 mice [2]; subcutaneous seven days prior to sensitising with DNFB (FIG. 3a)", "value": "the effect was specific to the SEQ ID NO: 3 sequence"}]}
